# Laboratory results reported in patent US6998237B1, “GD3 peptide mimics” (Health Research, Inc., priority 2002, dated 2006).
# Bridge positions count the residues as written; N and C are the ends. Ends that are not written are not given here.
# B1: pMG22-8-1 (peptide)
# peptide: MCPTDMPASLCM
# modifications: disulfide 2-11 (inferred)
# What was measured:
# [1] = tested on: GD3 positive (Melur) cells; test: Reactivity of sera from immunized mice to GD3 positive (Melur) versus GD3 negative (LG2) cells by ELISA; assay type: in vivo; settings: following two immunizations, Melur vs LG2 cells, sera day 24 and 38
# Method: FIGS. 5a and 5b are representations of the selective reactivity of sera from mice immunized with GD3 peptide mimic pMG22-8-1. Immunizations were carried out on […], day 14, day 28 and day 42. Serum samples were collected on day 24 and day 38 and tested for binding to GD3 positive or negative cells. Results are shown for a peptide mimic according to the present invention (pMG22-8-1; FIG. 5b) and control peptide (p763.74; FIG. 5a).
# Mice were immunized with peptide pMG22-8-1 (SEQ ID NO:6) on days 0, 14, 28 and 42. Sera was collected on days 24 and 38. The sera was tested for reactivity to GD3 positive (Melur) cells compared with GD3 negative cells (LG2) by ELISA.
# mAb MG22 = test: Inhibition of binding of anti-GD3 mAb MG22 to GD3+ Melur melanoma cells by peptide mimic
# Excerpt: (§1) FIGS. 2a, 2b and 2c are representations of inhibition of binding of anti-GD3 monoclonal antibody to GD3+ cells by peptide mimics of the present invention. Data is shown for pMG21-15-1 (FIG. 2a), pMG21-8-4 (FIG. 2b) and pMG22-8-1 (FIG. 2c) for inhibition of binding of mAb MG22 (-∘-); mAb MG21 (-●-) and mAb 763.74 (-Δ-).
# FIG. 3 is a representation of the effect of dithiothrietol (DTT) on inhibition of MG22 binding to GD2/3+Melur cells by […]. […] This inhibitory effect was abolished by the pre-incubation of pMG22-8-1 with 10 mM DTT (—SH), confirming that the inhibitory peptide was in its cyclized form (-S-S-). 763.74, a monoclonal antibody that recognizes another melanoma-associated antigen—the High Molecular Weight-Melanoma Associated Antigen (HMW-MAA), is used here as an irrelevant antibody to show the binding specificity of GD2/3 peptide mimic pMG22-8-1 for mAb MG22; and p763.74 is a HMW-MAA peptide mimic isolated using the mAb 763.74. It is used here as an irrelevant peptide mimic to show the binding specificity of the GD3-specific mAb MG22 for pMG22-8-1.
# (§2) For further characterization, the pVIII gene inserts of positive phage clones identified by reverse ELISA were sequenced. Peptides encoded by these sequences were synthesized and then tested for GD3 specificity. This was done by assessing the peptides' ability to compete with MG21 or MG22 for binding to GD3-bearing melanoma cell line in vitro.
# (§3) Cyclized pMG21-15-1, pMG21-8-4 and pMG22-8-1 were tested for inhibiting the binding of the anti-GD2 mAb to Melur melanoma cells.
# The effect of 10 mM DTT on the inhibition of binding of anti-GD3 mAb to GD3+ cells was investigated.
# [2] = Induction of anti-peptide and anti-carrier antibodies in immunized mice; assay type: in vivo
# Excerpt: FIGS. 4a, 4b, 4c are representations of induction of the anti-peptide and anti-carrier reponses. Mice were immunized on day 0, 14, 28 and 42. Sera was collected on day 10, 24 and 38. Results are shown for mice immunized with p763.74 (FIG. 4a), pMG22-8-1 (FIG. 4b) and KLH (FIG. 4c). Preimmune sera is indicated as -∘-; reaction against the immunized peptide is indicated as -●-; and reaction against peptide not used for immunization is indicated as -Δ-.
# Mice were immunized with pMG22-8-1, p763.74 peptides or KLH. Sera was tested on day 10, 24 and 38. […] In the group immunized with pMG22-8-1, the titer of antibodies reacting against the GD3 peptide mimic is observed.
# mAb MG21 = test: Inhibition of binding of anti-GD3 mAb MG21 to GD3+ Melur melanoma cells by peptide mimic; settings: cyclized peptide; FIG. 2a, 2b
# Excerpt: as §1, §2, §3
# [3] = target: anti-GD3 monoclonal antibody MG22; test: inhibition of mAb MG22 binding to GD2/3+ Melur melanoma cells by cyclized peptide, at 500 µM peptide
molecule,measurement,setting,value
"MCPTDMPASLCM (disulfide 2-11 (inferred)) [pMG22-8-1, GD3 peptide mimic isolated using MG22 from LX-8 phage library]",mice whose serum reacted selectively to GD3 positive cell line,[1],one out of eight mice
same,inhibition of mAb MG22 binding to GD3+ cells after pre-incubation of the peptide with DTT,"mAb MG22; 10 mM DTT (reduced, non-cyclized peptide)",abolished
same,inhibition of binding of MG22 to Melur cells,"mAb MG22; at 500 μM peptide, GD2/3+ Melur cells, dose-dependent",up to 72%
same,inhibition of binding of panning mAb MG22 to Melur melanoma cells,"mAb MG22; cyclized peptide, FIG. 2c",inhibited in a specific and dose-dependent manner
same,titer of non-specific antibodies reacting to p763.74 (peptide not used for immunization),"[2]; group immunized with pMG22-8-1, FIG. 4b",increase
same,titer of serum antibodies reacting to the immunogen,"[2]; mice immunized day 0, 14, 28, 42, sera day 10, 24, 38",high titer
"QPFPCYSNAPCQSPS (not fully specified (bridges); cysteine pairing not given here) [pMG21-15-1, GD3 peptide mimic isolated using MG21 from X15 phage library]",inhibition of binding of panning mAb MG21 to Melur melanoma cells,mAb MG21,inhibited in a specific and dose-dependent manner
"RCPPEYVAADCD (disulfide 2-11 (inferred)) [pMG21-8-4, GD3 peptide mimic isolated using MG21 from LX-8 phage library]",inhibition of binding of panning mAb MG21 to Melur melanoma cells,mAb MG21,inhibited in a specific and dose-dependent manner
B1,% inhibition of MG22 binding to Melur cells,[3],72%
